The source of these data is ChEMBL document CHEMBL4311946, “Mechanistic Insight on the Mode of Action of Colletoic Acid” (J Med Chem, 2019).

For series [1], the system named is 3T3-L1. The experiment in a line: Anti-adipogenic activity in differentiated mouse 3T3L1 cells assessed as reduction in FASN mRNA expression at 50 to 100 uM measured after 2 to 7 days by SYBR green dye-based qRT-PCR analysis relative to control. It counts as functional.
For series [2], the species on record is Homo sapiens. The experiment in a line: Anti-adipogenic activity in human visceral preadipocytes assessed as decrease in lipid accumulation at 50 uM measured after 3 days under induction medium containing hydrocortisone hemi-succinate by oil red O staining-based microscopic analysis. In kind it is functional, cell-based.
Series [3] relates to 3T3-L1. The experiment in a line: Anti-adipogenic activity in differentiated mouse 3T3L1 cells assessed as reduction in mitochondrial mass at 50 uM measured on day 7 by mitotracker deep red/hoechst 33342 staining-based confocal imaging analysis. In kind it is functional, cell-based.
Series [4] has as its system 3T3-L1. The series is described as follows: Anti-adipogenic activity in differentiated mouse 3T3L1 cells assessed as reduction in PPARgamma expression at 50 uM measured on day 7 by Western blot analysis. In kind it is functional, cell-based.
In series [5] the test system is Homo sapiens. The series is described as follows: Anti-adipogenic activity in human subcutaneous preadipocytes assessed as decrease in lipid accumulation at 50 uM incubated for 48 hrs under induction medium containing hydrocortisone hemi-succinate prior to compound washout followed by shifting to differentiation medium containing compound supplemented with fresh medium every 48 to 72 hrs for 9 to 14 days by oil red O staining-based microscopic analysis. In kind it is functional, cell-based.

The next series deals with Fibroblast. The series is described as follows: Effect on nascent protein synthesis in mouse fibroblasts assessed as reduction in O-Propargyl-puromycin incorporation at 50 uM measured after 2 hrs by fluorescent azide/pico green dye-based confocal microscopic analysis. It counts as ADME, cell-based.
Series [6] relates to 3T3-L1. The series is described as follows: Anti-adipogenic activity in differentiated mouse 3T3L1 cells assessed as reduction in PGC1alpha mRNA expression at 50 to 100 uM measured after 2 to 7 days by SYBR green dye-based qRT-PCR analysis relative to control. In kind it is functional. Background: Quantitative PCR measures a nucleic acid by following its amplification.
Series [7] has as its system 3T3-L1. The series is described as follows: Anti-adipogenic activity in mouse 3T3L1 preadipocytes assessed as reduction in C/EBPbeta mRNA expression at 50 to 100 uM measured daily for 2 days under induction media containing dehydrocorticosterone/cortisone by SYBR green dye-based qRT-PCR analysis. In kind it is functional, cell-based.
Series [8] can be described thus: Stability in mouse plasma. In kind it is ADME, cell-free.
Series [9] concerns 3T3-L1. The series is described as follows: Anti-adipogenic activity in differentiated mouse 3T3L1 cells assessed as reduction in PPARgamma mRNA expression at 50 to 100 uM measured after 2 to 7 days by SYBR green dye-based qRT-PCR analysis. In kind it is functional, cell-based.
For series [10], the target named is T1, Glucocorticoid receptor (Homo sapiens) (UniProt P04150).
T1 sequence (whole entry): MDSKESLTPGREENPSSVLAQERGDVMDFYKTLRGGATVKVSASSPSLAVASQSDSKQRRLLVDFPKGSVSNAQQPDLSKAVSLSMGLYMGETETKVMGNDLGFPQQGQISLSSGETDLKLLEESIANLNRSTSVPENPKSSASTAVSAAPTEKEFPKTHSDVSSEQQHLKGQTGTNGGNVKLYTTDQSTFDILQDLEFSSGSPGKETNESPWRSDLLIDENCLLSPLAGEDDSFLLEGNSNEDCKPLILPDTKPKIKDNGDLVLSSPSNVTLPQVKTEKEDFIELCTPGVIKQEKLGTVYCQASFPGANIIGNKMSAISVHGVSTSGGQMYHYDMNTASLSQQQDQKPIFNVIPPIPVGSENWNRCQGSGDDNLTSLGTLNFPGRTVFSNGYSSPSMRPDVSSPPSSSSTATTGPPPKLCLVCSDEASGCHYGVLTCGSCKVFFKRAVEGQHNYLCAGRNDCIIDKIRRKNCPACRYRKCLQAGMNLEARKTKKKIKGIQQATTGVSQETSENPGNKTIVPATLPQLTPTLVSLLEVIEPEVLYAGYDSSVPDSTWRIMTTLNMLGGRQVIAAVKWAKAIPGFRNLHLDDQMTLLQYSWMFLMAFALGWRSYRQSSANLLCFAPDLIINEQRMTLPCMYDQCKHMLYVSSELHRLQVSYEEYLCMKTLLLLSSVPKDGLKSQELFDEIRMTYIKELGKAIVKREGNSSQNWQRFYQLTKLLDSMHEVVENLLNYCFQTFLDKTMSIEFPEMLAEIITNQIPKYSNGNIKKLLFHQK
The experiment in a line: Antagonist activity at GR in human MDA-MB-231 cells at 50 uM measured after 4 hrs in presence of dexamethasone by luciferase reporter gene assay. It counts as cell-based.

Series [11] relates to 3T3-L1. The experiment in a line: Anti-adipogenic activity in mouse 3T3L1 preadipocytes assessed as reduction in C/EBPdelta mRNA expression at 50 to 100 uM measured daily for 2 days under induction media containing dehydrocorticosterone/cortisone by SYBR green dye-based qRT-PCR analysis. In kind it is functional, cell-based.
In series [12] the test system is 3T3-L1. The experiment in a line: Inhibition of cell differentiation in mouse 3T3L1 cells assessed as reduction in pre-adipocyte differentiation into matured adipocytes at 50 uM incubated for 48 hrs under induction medium containing dehydrocorticosterone/cortisone followed by shifting to differentiation medium and measured after 7 days by Oil red O staining-based microscopic analysis. In kind it is functional.

Series [13] relates to Homo sapiens. The experiment in a line: Anti-adipogenic activity in human subcutaneous preadipocytes assessed as decrease in lipid accumulation at 50 uM measured after 3 days under induction medium containing hydrocortisone hemi-succinate by oil red O staining-based microscopic analysis. In kind it is functional, cell-based.
A short description of series [14]: Half life in simulated gastric fluid. It counts as ADME.
For series [15], the target named is T2, 11-beta-hydroxysteroid dehydrogenase type 2 (Homo sapiens, UniProt P80365).
T2 sequence (P80365 whole entry): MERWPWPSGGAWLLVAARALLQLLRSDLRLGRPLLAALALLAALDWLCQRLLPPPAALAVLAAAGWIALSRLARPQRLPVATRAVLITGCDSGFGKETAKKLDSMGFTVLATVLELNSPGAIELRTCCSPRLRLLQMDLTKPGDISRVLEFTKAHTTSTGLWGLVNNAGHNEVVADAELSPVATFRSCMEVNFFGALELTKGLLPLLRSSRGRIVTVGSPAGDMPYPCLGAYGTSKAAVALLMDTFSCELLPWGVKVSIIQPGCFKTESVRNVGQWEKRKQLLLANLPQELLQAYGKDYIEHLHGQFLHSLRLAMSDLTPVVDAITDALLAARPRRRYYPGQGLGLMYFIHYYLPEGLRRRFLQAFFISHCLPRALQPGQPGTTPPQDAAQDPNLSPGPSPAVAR
The series is described as follows: Inhibition of 11beta-HSD2 (unknown origin) expressed in HEK293 cells using cortisone as substrate measured after 2 hrs in presence of NAD+ by HTRF assay. In kind it is ADME, cell-based.

The subject of series [16] is 3T3-L1. The experiment in a line: Anti-adipogenic activity in differentiated mouse 3T3L1 cells assessed as reduction in 11beta-HSD1 mRNA expression at 50 to 100 uM measured after 2 to 7 days by SYBR green dye-based qRT-PCR analysis. It counts as functional, cell-based.
Series [17] in a line: Half life in human plasma. In kind it is ADME, cell-free.
The test system of series [18] is 3T3-L1. The experiment in a line: Anti-adipogenic activity in differentiated mouse 3T3L1 cells assessed as reduction in FABP4 mRNA expression at 50 to 100 uM measured after 2 to 7 days by SYBR green dye-based qRT-PCR analysis relative to control. In kind it is functional.
In series [19] the target is 11-beta-hydroxysteroid dehydrogenase 1 (Homo sapiens, UniProt P28845). The experiment in a line: Inhibition of 11beta-HSD1 in human microsomes using [3H] cortisone as substrate by scintillation proximity assay. (In general: SPA uses beads or plates that emit light when radiolabelled molecules are held near them.)
The test system of series [20] is 3T3-L1. The series is described as follows: Cell cycle arrest in mouse 3T3L1 cells up to 1 mM measured after 24 hrs under induction medium containing dehydrocorticosterone/cortisone by propidium iodide staining-based flow cytometry. It counts as ADME. To be noted: 3t3-l1, 24 h. For orientation: Flow cytometry measures light scatter and fluorescence of single cells or particles in a stream.

Structures are written as SMILES. The source made the active and inactive calls. No cut-off for these calls is given here. A value given as a limit tells only on which side of the number the result lay.

Chain of 11-beta-hydroxysteroid dehydrogenase 1 (P28845 whole entry): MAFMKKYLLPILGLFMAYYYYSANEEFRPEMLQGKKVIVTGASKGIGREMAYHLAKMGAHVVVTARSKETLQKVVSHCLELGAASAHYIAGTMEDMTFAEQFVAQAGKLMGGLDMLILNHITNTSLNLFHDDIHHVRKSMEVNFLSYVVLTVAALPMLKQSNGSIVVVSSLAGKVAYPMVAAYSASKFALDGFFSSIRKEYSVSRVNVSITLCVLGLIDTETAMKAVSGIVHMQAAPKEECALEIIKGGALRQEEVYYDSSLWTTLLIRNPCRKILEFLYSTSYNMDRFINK

On to `CC1=CC[C@@]2(C[C@@H]1O)[C@@H](C(=O)O)CC[C@H]2C(C)C`, for which the “fold change (FC)” value in the series on 3T3-L1 [1], in the series on 3T3-L1 [6] and with 3T3-L1 [18] was less than 10 each time. Also, the result (in the series filed under Homo sapiens [2]; in series [10]; with Homo sapiens [13]) was inactive. The outcome in the series on 3T3-L1 [3], in the series on 3T3-L1 [4], in the series with Homo sapiens [5], with 3T3-L1 [7], in the series on 3T3-L1 [9] and in the series on 3T3-L1 [11] was Active. Further, in the series with 3T3-L1 [16], the outcome was Active. The Activity result with Fibroblast and in the series with 3T3-L1 [20] was “Non-Toxic” in each case. Also, the Stability result in [8] was “Unstable”. Besides, the inhibition result in the series with 3T3-L1 [12] was “Active”. Besides, the half-life in series [14] is less than 2 h; in series [17], greater than 48 h. The figures for the IC50 in series [15] and in [19] were greater than 500 µM and 0.013 µM, respectively.

One may read the half-life as the time in which the quantity being followed falls by half. The IC50 is the point on the concentration scale where inhibition reaches its midpoint.
